Several values for one entry are separate records, joined by “and”; a condition that tells them apart may be missing. Equal values may be shown once. Read-outs that look alike come from different tables or passages of the source.
How the values were obtained:
[1] = target: T1, CDK12–cyclin K and DDB1 (Homo sapiens, UniProt Q16531+Q9NYV4, K965R); experiment: TR-FRET ternary complex formation assay (compound titration); format: binding; conditions: for TR-FRET signal at compound concentration: replicate titrations
T1 construct: His6–CDK12 (a.a. 713–1,052); full-length or beta-propeller B domain deletion (ΔBPB: a.a. 396–705 deleted) constructs of His6–DDB1ΔBPB, StrepII–Avi–DDB1, or His6–Spy–DDB1; made in house; host or cells: Trichoplusia ni High Five insect cells (baculovirus)
Method in brief: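 Delayed (70 μs) time-resolved read; FRET computed as 520 nm over 490 nm emission.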

[2] = test system: cyclin K–eGFP degradation reporter; experiment: Cyclin K reporter stability analysis (dual-color cyclin K–eGFP reporter); format: cell-based, human
Method in brief: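 HEK293T–Cas9 cells carrying the cyclin K–eGFP reporter were seeded at 1 × 10^6 ml^−1 and exposed to drug or DMSO for 5 h. Flow cytometry gave geometric means of eGFP and mCherry in round, mCherry-positive cells. The eGFP/mCherry ratio was normalized to the mean of three DMSO controls.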

[3] = test system: HEK293T cells; experiment: Drug sensitivity assay (CellTiter-Glo viability) with or without MLN4924 pretreatment; format: cell-based, human; conditions: for EC50: Homo sapiens, HEK-293T; for Toxicity rescue: MLN4924-mediated cytotoxicity rescue, 10 µM used where n.d.
Method in brief: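 Viability of HEK293T–Cas9 cells was compared after 3-day drug treatment with or without 100 nM MLN4924 pretreatment (2 h, versus DMSO). Values are CellTiter-Glo signals relative to DMSO controls.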

[4] = compound concentration 0.468 nM
[5] = compound concentration 7.92001 nM
[6] = compound concentration 15.84 nM
[7] = compound concentration 30.96 nM
[8] = compound concentration 62.6401 nM
[9] = compound concentration 125.28 nM
[10] = compound concentration 244.8 nM
[11] = compound concentration 993.601 nM
[12] = compound concentration 2001.6 nM
[13] = in vitro complex formation, 50 nM CDK12–cyclin K, 100 nM DDB1, text and figures, read-out: TR-FRET EC50
[14] = sheet MOESM7, read-out: log TR-FRET EC50 (converted)
[15] = Supplementary Table 2, HEK293T viability, 72 h, compound alone, read-out: Cellular assays EC50
[16] = source data sheet correlations, read-out: TR-FRET EC50
[17] = source data sheet correlations, read-out: DC50

T1 sequence (Q9NYV4 713-1052 K965R): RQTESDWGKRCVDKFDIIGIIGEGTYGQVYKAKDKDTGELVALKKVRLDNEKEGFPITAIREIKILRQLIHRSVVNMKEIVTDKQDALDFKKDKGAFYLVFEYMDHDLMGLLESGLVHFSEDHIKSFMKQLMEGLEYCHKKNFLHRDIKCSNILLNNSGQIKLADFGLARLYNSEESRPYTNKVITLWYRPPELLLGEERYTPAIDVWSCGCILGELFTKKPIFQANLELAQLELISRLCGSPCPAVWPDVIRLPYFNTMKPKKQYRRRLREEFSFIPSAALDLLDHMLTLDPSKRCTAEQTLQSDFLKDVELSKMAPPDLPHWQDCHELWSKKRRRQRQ
T1 sequence (O75909 1-267 partner): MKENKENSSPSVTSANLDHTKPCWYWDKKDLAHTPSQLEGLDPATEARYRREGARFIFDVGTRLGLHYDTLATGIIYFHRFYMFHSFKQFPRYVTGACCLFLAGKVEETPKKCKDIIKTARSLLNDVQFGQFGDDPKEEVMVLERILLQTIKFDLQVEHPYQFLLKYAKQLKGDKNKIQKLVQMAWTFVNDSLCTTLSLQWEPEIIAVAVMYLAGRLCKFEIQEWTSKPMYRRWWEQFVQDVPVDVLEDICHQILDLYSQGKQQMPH
T1 sequence (Q16531 whole entry): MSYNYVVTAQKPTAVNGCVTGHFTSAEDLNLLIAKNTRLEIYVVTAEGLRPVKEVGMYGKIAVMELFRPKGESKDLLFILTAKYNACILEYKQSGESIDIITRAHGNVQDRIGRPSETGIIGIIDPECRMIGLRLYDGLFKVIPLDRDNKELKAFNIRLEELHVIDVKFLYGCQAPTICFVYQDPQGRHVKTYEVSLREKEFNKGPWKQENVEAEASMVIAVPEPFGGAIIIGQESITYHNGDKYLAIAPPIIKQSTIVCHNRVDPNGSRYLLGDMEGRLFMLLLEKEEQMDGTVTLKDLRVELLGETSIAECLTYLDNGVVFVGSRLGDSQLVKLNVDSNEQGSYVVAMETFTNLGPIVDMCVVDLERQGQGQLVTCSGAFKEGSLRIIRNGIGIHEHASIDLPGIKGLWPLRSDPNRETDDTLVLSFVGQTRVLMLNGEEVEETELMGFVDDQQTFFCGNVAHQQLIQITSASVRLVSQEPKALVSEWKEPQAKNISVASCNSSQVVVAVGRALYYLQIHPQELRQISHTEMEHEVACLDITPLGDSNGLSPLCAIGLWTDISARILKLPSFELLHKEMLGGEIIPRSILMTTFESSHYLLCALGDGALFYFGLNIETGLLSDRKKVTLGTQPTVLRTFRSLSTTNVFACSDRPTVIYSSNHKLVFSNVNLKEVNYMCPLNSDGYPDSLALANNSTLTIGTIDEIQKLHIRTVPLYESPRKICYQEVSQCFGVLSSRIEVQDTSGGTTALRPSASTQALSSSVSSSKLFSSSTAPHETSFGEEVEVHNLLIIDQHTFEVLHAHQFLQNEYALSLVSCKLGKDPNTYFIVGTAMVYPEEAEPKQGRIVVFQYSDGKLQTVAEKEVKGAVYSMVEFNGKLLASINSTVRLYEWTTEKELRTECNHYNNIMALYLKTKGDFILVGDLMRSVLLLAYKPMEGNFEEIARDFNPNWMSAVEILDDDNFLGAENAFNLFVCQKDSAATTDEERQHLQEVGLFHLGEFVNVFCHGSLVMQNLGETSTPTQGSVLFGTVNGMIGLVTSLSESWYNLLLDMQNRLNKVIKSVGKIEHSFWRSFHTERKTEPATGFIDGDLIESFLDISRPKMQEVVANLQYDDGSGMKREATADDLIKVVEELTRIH

Row | TR-FRET signal [1, 4] | TR-FRET signal, individual replicate [1, 4] | TR-FRET signal at compound concentration [1, 4] | TR-FRET signal ([1]; compound concentration 2.16 nM) | TR-FRET signal, individual replicate ([1]; compound concentration 2.16 nM) | TR-FRET signal at compound concentration ([1]; compound concentration 2.16 nM) | TR-FRET signal ([1]; compound concentration 3.6 nM) | TR-FRET signal at compound concentration ([1]; compound concentration 3.6 nM) | TR-FRET signal at compound concentration [1, 5] | TR-FRET signal at compound concentration [1, 6] | TR-FRET signal at compound concentration [1, 7] | TR-FRET signal at compound concentration [1, 8] | TR-FRET signal at compound concentration [1, 9] | TR-FRET signal at compound concentration [1, 10] | TR-FRET signal at compound concentration [1, 11] | TR-FRET signal at compound concentration [1, 12] | EC50 [1, 13] [nM] | EC50 [1, 14] [nM] | Structure (SMILES) | EC50 [3, 15] [nM] | Toxicity rescue ([3]; Supplementary Table 2) [%] | further results
1 | 0.241 and 0.2489 | 0.241 and 0.2489 | 0.241 and 0.2489 | 0.2983 and 0.2991 | 0.2983 and 0.2991 | 0.2983 and 0.2991 | 0.374 and 0.3698 | 0.374 and 0.3698 | 0.5495 and 0.5492 | 0.8302 and 0.8222 | 1.2679 and 1.278 | 1.798 and 1.8918 | 2.382 and 2.496 | 2.742 and 2.9079 | 3.1224 and 3.3313 | 3.176 and 3.283 | 57 ± 3 | 56.8 | CC[C@H](CO)Nc1nc(NCCCc2ccccc2)c2ncn(C(C)C)c2n1 [DS11] | > 10000 | 0 | EC50 ([1]; Supplementary Table 2, read-out: TR-FRET EC50 TR-FRET): 56.8 nM; TR-FRET signal, individual replicate ([1]; compound concentration 3.6 nM): 0.374 and 0.3698; TR-FRET signal [1, 5]: 0.5495 and 0.5492; TR-FRET signal, individual replicate [1, 5]: 0.5495 and 0.5492; TR-FRET signal [1, 6]: 0.8302 and 0.8222; TR-FRET signal, individual replicate [1, 6]: 0.8302 and 0.8222; TR-FRET signal [1, 7]: 1.2679 and 1.278; TR-FRET signal, individual replicate [1, 7]: 1.2679 and 1.278; TR-FRET signal [1, 8]: 1.798 and 1.8918; TR-FRET signal, individual replicate [1, 8]: 1.798 and 1.8918; TR-FRET signal [1, 9]: 2.382 and 2.496; TR-FRET signal, individual replicate [1, 9]: 2.382 and 2.496; TR-FRET signal [1, 10]: 2.742 and 2.9079; TR-FRET signal, individual replicate [1, 10]: 2.742 and 2.9079; TR-FRET signal [1, 11]: 3.1224 and 3.3313; TR-FRET signal, individual replicate [1, 11]: 3.1224 and 3.3313; TR-FRET signal [1, 12]: 3.176 and 3.283; TR-FRET signal, individual replicate [1, 12]: 3.176 and 3.283; DC50 ([2]; Supplementary Table 2, HEK293T cycK-eGFP reporter, 5 h, read-out: Cellular assays DC50): > 10000 nM
2 | 0.2538 and 0.248 and 0.2145 and 0.2136 | 0.2538 and 0.248 and 0.2145 and 0.2136 | 0.2538 and 0.248 and 0.2145 and 0.2136 | 0.2768 and 0.2874 and 0.2634 and 0.2686 | 0.2768 and 0.2874 and 0.2634 and 0.2686 | 0.2768 and 0.2874 and 0.2634 and 0.2686 | 0.3502 and 0.3555 and 0.3511 and 0.3733 | 0.3502 and 0.3555 and 0.3511 and 0.3733 | 0.4902 and 0.4911 and 0.5114 and 0.5651 | 0.7316 and 0.7507 and 0.8127 and 0.857 | 1.126 and 1.191 and 1.297 and 1.247 | 1.6143 and 1.736 and 1.841 and 1.867 | 2.093 and 2.298 and 2.427 and 2.467 | 2.523 and 2.773 and 2.7872 and 2.833 | 2.957 and 3.301 and 3.125 and 3.145 | 3.117 and 3.31 and 3.185 and 3.127 | 60 | 60.3 | CC[C@H](CO)Nc1nc(NCc2ccc3ccccc3c2)c2ncn(C(C)C)c2n1 [DS08] | 3500 | 186 | TR-FRET signal, individual replicate ([1]; compound concentration 3.6 nM): 0.3502 and 0.3555 and 0.3511 and 0.3733; TR-FRET signal [1, 5]: 0.4902 and 0.4911 and 0.5114 and 0.5651; TR-FRET signal, individual replicate [1, 5]: 0.4902 and 0.4911 and 0.5114 and 0.5651; TR-FRET signal [1, 6]: 0.7316 and 0.7507 and 0.8127 and 0.857; TR-FRET signal, individual replicate [1, 6]: 0.7316 and 0.7507 and 0.8127 and 0.857; TR-FRET signal [1, 7]: 1.126 and 1.191 and 1.297 and 1.247; TR-FRET signal, individual replicate [1, 7]: 1.126 and 1.191 and 1.297 and 1.247; TR-FRET signal [1, 8]: 1.6143 and 1.736 and 1.841 and 1.867; TR-FRET signal, individual replicate [1, 8]: 1.6143 and 1.736 and 1.841 and 1.867; TR-FRET signal [1, 9]: 2.093 and 2.298 and 2.427 and 2.467; TR-FRET signal, individual replicate [1, 9]: 2.093 and 2.298 and 2.427 and 2.467; TR-FRET signal [1, 10]: 2.523 and 2.773 and 2.7872 and 2.833; TR-FRET signal, individual replicate [1, 10]: 2.523 and 2.773 and 2.7872 and 2.833; TR-FRET signal [1, 11]: 2.957 and 3.301 and 3.125 and 3.145; TR-FRET signal, individual replicate [1, 11]: 2.957 and 3.301 and 3.125 and 3.145; TR-FRET signal [1, 12]: 3.117 and 3.31 and 3.185 and 3.127; TR-FRET signal, individual replicate [1, 12]: 3.117 and 3.31 and 3.185 and 3.127; EC50 [1, 16]: 60.3 nM; DC50 [2, 17]: 724 nM; EC50 ([3]; Supplementary Fig. 5, HEK293T, CellTiter Glo, 72h, read-out: Viability EC50, no MLN4924): 3380 nM
3 | – | – | 0.285 and 0.2127 and 0.2055 | – | – | 0.3417 and 0.2944 and 0.2907 | – | 0.5004 and 0.4783 and 0.4869 | 0.7813 and 0.9382 and 0.8877 | 1.382 and 1.799 and 1.705 | 2.38 and 2.795 and 2.787 | 3.286 and 3.376 and 3.32 | 3.728 and 3.691 and 3.7229 | 3.806 and 3.848 and 3.815 | 3.884 and 3.899 and 3.865 | 3.902 and 3.823 and 3.872 | 21 ± 1 | 20.8 | CC[C@H](CO)Nc1nc(NCCCc2ccc(Cl)c(Cl)c2)c2ncn(C(C)C)c2n1 [DS65] | 528 | 214 | EC50 [1, 16]: 20.8 nM; DC50 [2, 17]: 103 nM

From publication PMC10746543, “Design principles for cyclin K molecular glue degraders” (Nature Chemical Biology, 2023)
